Assay results from US20120165331A1, “Di/tri-aza-spiro-C9-C11alkanes” (priority 2010, published 2012).
pKd, pKi: −log10 of the molar value.

Experiments:
[1] = biological target: T1, human orexin 1 receptor (Homo sapiens, UniProt O43613); assay: Radioligand binding assay ([125I]orexin A competition), human orexin 1 receptor; settings: radioligand [125I]orexin A instead of [3H]-SB649868; read-out: Binding hOx1R Kd
T1 construct: expressed in transfected cells
T1 sequence (O43613 1-425): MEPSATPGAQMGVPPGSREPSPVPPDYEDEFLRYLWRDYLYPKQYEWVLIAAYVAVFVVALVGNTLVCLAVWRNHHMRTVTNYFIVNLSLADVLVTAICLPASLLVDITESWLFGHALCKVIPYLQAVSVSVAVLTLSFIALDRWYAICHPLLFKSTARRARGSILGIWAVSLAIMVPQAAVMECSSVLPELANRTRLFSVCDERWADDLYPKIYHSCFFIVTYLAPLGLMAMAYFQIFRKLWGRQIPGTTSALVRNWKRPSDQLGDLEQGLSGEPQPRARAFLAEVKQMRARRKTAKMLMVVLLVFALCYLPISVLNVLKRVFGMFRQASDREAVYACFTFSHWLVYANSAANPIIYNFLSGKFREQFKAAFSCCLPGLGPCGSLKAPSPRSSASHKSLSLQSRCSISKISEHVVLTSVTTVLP

[2] = biological target: T2, human orexin 2 receptor (Homo sapiens, UniProt O43614); assay: Radioligand binding assay ([125I]orexin A competition), human orexin 2 receptor; settings: radioligand [125I]orexin A instead of [3H]-SB649868; read-out: Binding hOx2R Kd
T2 construct: expressed in transfected cells
T2 sequence (O43614 1-444): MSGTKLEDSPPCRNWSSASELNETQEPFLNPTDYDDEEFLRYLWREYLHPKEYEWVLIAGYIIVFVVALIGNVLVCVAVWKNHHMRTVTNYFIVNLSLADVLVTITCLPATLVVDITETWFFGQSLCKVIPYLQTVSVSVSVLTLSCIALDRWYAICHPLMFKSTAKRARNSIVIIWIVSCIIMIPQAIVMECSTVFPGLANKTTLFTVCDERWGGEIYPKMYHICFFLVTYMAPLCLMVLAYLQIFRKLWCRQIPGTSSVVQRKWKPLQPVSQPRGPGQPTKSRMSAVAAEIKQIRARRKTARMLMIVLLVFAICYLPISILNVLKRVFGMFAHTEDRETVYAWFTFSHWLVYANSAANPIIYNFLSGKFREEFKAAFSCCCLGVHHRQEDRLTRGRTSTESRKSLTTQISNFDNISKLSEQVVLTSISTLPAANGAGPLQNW

[3] = biological target: T1, human orexin 1 receptor; assay: Calcium accumulation in cells (FLIPR), antagonism of orexin A, human orexin 1 receptor; assay type: cell-based; settings: for pKi: calcium accumulation, antagonism of orexin A, Cheng-Prusoff corrected, read-out: FLIPR hOx1R Ki; for inhibition at 10 µM: measured at a concentration of 10 μM of compound, read-out: FLIPR hOx1R % inhibition
[4] = biological target: T2, human orexin 2 receptor; assay: Calcium accumulation in cells (FLIPR), antagonism of orexin A, human orexin 2 receptor; assay type: cell-based; settings: calcium accumulation, antagonism of orexin A, Cheng-Prusoff corrected; read-out: FLIPR hOx2R Ki
[5] = biological target: T1, human orexin 1 receptor; assay: Radioligand binding assay ([3H]-SB649868 competition), human orexin 1 receptor; settings: radioligand [3H]-SB649868; read-out: Binding hOx1R Kd
Summary of the method: (§1)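 Membranes from CHO or HEK cells expressing the human receptor were incubated 1 h at room temperature with about 1 nM [3H]-SB649868 and test compound in HEPES pH 7.5 buffer with BSA, MgCl2, CaCl2 and tween. Non-specific binding defined with 10 μM almorexant; filtration read-out, values reported as Kd.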

[6] = biological target: T2, human orexin 2 receptor; assay: Radioligand binding assay ([3H]-SB649868 competition), human orexin 2 receptor; settings: radioligand [3H]-SB649868; read-out: Binding hOx2R Kd
Summary of the method: as §1

| SMILES | pKd [1] | pKd [2] | pKi [3] | pKi [4] | pKd [5] | pKd [6] | inhibition at 10 µM [3] [%] |
| --- | --- | --- | --- | --- | --- | --- | --- |
| O=C1N(Cc2cccc3ccccc23)CCC12CCN(c1nc3ccccc3[nH]1)CC2 [Example 3.7, 8-(1H-Benzo[d]imidazol-2-yl)-2-(naphthalen-1-ylmethyl)-2,8-diazaspiro[4.5]decan-1-one] | < 5.00 | 5.72 |  |  |  |  |  |
| O=C1N(Cc2cccc3ccccc23)CCC12CCN(c1cnc3ccccc3n1)CC2 [Example 3.11, 2-(Naphthalen-1-ylmethyl)-8-(quinoxalin-2-yl)-2,8-diazaspiro[4.5]decan-1-one] | 5.20 | 6.38 | 5.97 | 6.71 |  |  |  |
| Cc1cc(C)nc(N2CCC3(CCC(=O)N3Cc3cccc4[nH]ccc34)CC2)n1 [Example 8.3, 1-((1H-Indol-4-yl)methyl)-8-(4,6-dimethylpyrimidin-2-yl)-1,8-diazaspiro[4.5]decan-2-one] |  |  | 5.92 | 8.64 | 5.62 | 7.52 |  |
| N#Cc1ccnc(N2CCC3(CCC(=O)N3Cc3cccc4[nH]ccc34)CC2)c1 [Example 8.4, 2-(1-((1H-Indol-4-yl)methyl)-2-oxo-1,8-diazaspiro[4.5]decan-8-yl)isonicotinonitrile] |  |  |  | 7.35 | < 5.00 | 6.46 | 36 |
| Cc1ccc(C)c(CN2C(=O)CCC23CCN(c2cnc4ccccc4n2)CC3)c1 [Example 8.5, 1-(2,5-Dimethylbenzyl)-8-(quinoxalin-2-yl)-1,8-diazaspiro[4.5]decan-2-one] |  |  | 7.00 | 8.12 | 7.09 | 7.11 |  |
| Cc1ccc(C)c(CN2C(=O)CCC23CCN(c2nc(C)cc(C)n2)CC3)c1 [Example 8.6, 1-(2,5-Dimethylbenzyl)-8-(4,6-dimethylpyrimidin-2-yl)-1,8-diazaspiro[4.5]decan-2-one] |  |  | 5.56 | 8.00 | 5.31 | 6.82 |  |
| Cc1ccc(C)c(CN2C(=O)COCC23CCN(c2cnc4ccccc4n2)CC3)c1 [Example 8.7, 1-(2,5-Dimethylbenzyl)-9-(quinoxalin-2-yl)-4-oxa-1,9-diazaspiro[5.5]undecan-2-one] |  |  | 6.56 | 7.62 | 6.37 | 6.99 |  |
| O=C1COCC2(CCN(c3cnc4ccccc4n3)CC2)N1Cc1cccc2[nH]ccc12 [Example 8.9, 1-((1H-Indol-4-yl)methyl)-9-(quinoxalin-2-yl)-4-oxa-1,9-diazaspiro[5.5]undecan-2-one] |  |  | 6.49 | 7.54 | 6.37 | 6.87 |  |
| O=C1COCC2(CCN(c3cnc4ccccc4n3)CC2)N1Cc1cccc(-c2ccccn2)c1 [Example 8.11, 1-(3-(Pyridin-2-yl)benzyl)-9-(quinoxalin-2-yl)-4-oxa-1,9-diazaspiro[5.5]undecan-2-one] |  |  | 7.28 | 6.11 | 7.28 | 5.34 |  |
| Cc1ccc(C)c(CN2C(=O)COCC23CCN(c2nc(C)cc(C)n2)CC3)c1 [Example 8.15, 1-(2,5-Dimethylbenzyl)-9-(4,6-dimethylpyrimidin-2-yl)-4-oxa-1,9-diazaspiro[5.5]undecan-2-one] |  |  |  | 7.55 | < 5.00 | 6.78 | 15 |
| Cc1ccc(C)c(CN2C(=O)OCC23CCN(c2cnc4ccccc4n2)CC3)c1 [Example 8.20, 1-(2,5-Dimethylbenzyl)-8-(quinoxalin-2-yl)-3-oxa-1,8-diazaspiro[4.5]decan-2-one] |  |  | 6.85 | 7.85 | 6.77 | 6.82 |  |
| O=C1OCC2(CCN(c3cnc4ccccc4n3)CC2)N1Cc1cccc2[nH]ccc12 [Example 8.22, 1-((1H-Indol-4-yl)methyl)-8-(quinoxalin-2-yl)-3-oxa-1,8-diazaspiro[4.5]decan-2-one] |  |  | 6.19 | 7.42 | 6.01 | 6.54 |  |
